Literature values, collected in US8227490B2, “Use of 1-hydroxy-2-pyridones for the treatment of seborrheic dermatitis” (Medicis Pharmaceutical Corporation, priority 1996, dated 2012).

Test system: gram-positive bacteria
Conditions: Kinsman et al., J. Med. Microbiol. (1983)

In the case of `CC(=O)N1CCN(c2ccc(OCC3COC(Cn4ccnc4)(c4ccc(Cl)cc4Cl)O3)cc2)CC1` (stereo not shown) [ketoconazole], the “activity in vitro against gram-positive bacteria” value is given as “inactive”.
